Measurements from US6525001B1, “Substituted pyrimidine and pyridine herbicides” (Mid-American Commercialization Corporation, priority 1997, dated 2003).

Legend:
Experiment in all cases: Test D
Assay type in all cases: in vivo
[1] = test system: Italian ryegrass (Lolium multiflorum); details: PREEMERGENCE
[2] = test system: jointed goatgrass (Aegilops cylindrica); details: PREEMERGENCE
kochia (Kochia scoparia) = test system: kochia (Kochia scoparia); design: key: 0 is no effect; 100 is complete control; details: PREEMERGENCE
[3] = test system: lambsquarters (Chenopodium album); design: key: 0 is no effect; 100 is complete control; details: PREEMERGENCE
[4] = test system: redroot pigweed (Amaranthus retroflexus); design: key: 0 is no effect; 100 is complete control; details: PREEMERGENCE
[5] = test system: spring barley (Hordeum vulgare); details: PREEMERGENCE
[6] = test system: winter wheat (Triticum aestivum); details: PREEMERGENCE
[7] = test system: Italian ryegrass (Lolium multiflorum); details: POSTEMERGENCE
Experimental: (§1) Compounds evaluated in this test were formulated in a non-phytotoxic solvent mixture which included a surfactant and applied to plants that were in the 1- to 4-leaf stage (postemergence application). A mixture of sandy loam soil and greenhouse potting mix in a 60:40 ratio was used for the postemergence test.
(§2) Plantings of these crops and weed species were adjusted to produce plants of appropriate size for the postemergence test. All plant species were grown using normal greenhouse practices. Crop and weed species include alfalfa (Medicago sativa), annual bluegrass (Poa annua), blackgrass (Alopecurus myosuroides), black nightshade (Solanum nigra), chickweed (Stellaria media), common poppy (Papaver rhoeas), deadnettle (Lamium amplexicaule), downy brome (Bromus tectorum), field violet (Viola arvensis), galium 2 (Galium aparine), green foxtail (Setaria viridis), Italian ryegrass (Lolium multiflorum), jointed goatgrass (Aegilops cylindrica), kochia (Kochia scoparia), lambsquarters (Chenopodium album), lentil (Lens culinaris), littleseed canarygrass (Phalaris minor), pea (Pisum sativum), potato (Solanum tuberosum), rape (Brassica napus), redroot pigweed (Amaranthus retroflexus), Russian thistle (Salsola kali), scentless chamomile (Matricaria inodora), sorghum (Sorghum vulgare), spring barley (Hordeum vulgare), sugar beet (Beta vulgaris), sunflower (Helianthus annuus), ivyleaf speedwell (Veronica hederaefolia), spring wheat (Triticum aestivum), winter wheat (Triticum aestivum), wild buckwheat (Polygonum convolvulus), wild mustard (Sinapis arvensis), wild oat (Avena fatua), windgrass (Apera spica-venti) and winter barley (Hordeum vulgare).
(§3) Treated plants and untreated controls were maintained in a greenhouse for approximately 21 to 28 days, after which all treated plants were compared to untreated controls and visually evaluated. Plant response ratings, summarized in Table D, are based upon a 0 to 100 scale where 0 is no effect and 100 is complete control. A dash response (−) means no test result.

[8] = test system: annual bluegrass (Poa annua); details: POSTEMERGENCE
Experimental: as §1, §2, §3

[9] = test system: green foxtail (Setaria viridis); details: POSTEMERGENCE
Experimental: as §1, §2, §3

[10] = test system: littleseed canarygrass (Phalaris minor); details: POSTEMERGENCE
Experimental: as §1, §2, §3

[11] = test system: scentless chamomile (Matricaria inodora); details: POSTEMERGENCE
Experimental: as §1, §2, §3

[12] = test system: spring barley (Hordeum vulgare); details: POSTEMERGENCE
Experimental: as §1, §2, §3

[13] = test system: windgrass (Apera spica-venti); details: POSTEMERGENCE
Experimental: as §1, §2, §3

[14] = test system: lambsquarters (Chenopodium album); design: key: 0 is no effect; details: POSTEMERGENCE
Experimental: as §1, §2, §3

## Cc1cnc(-n2cnc(C(F)(F)F)n2)nc1Cn1ccc(C(F)(F)F)n1 [Compound 51]
[1]; Rate 31 g/ha
  Plant response rating, I. Ryegrass: 60
[1]; Rate 62 g/ha
  Plant response rating, I. Ryegrass: 90
[2]; Rate 31 g/ha
  Plant response rating, Jointed goatgra: 60
[2]; Rate 62 g/ha
  Plant response rating, Jointed goatgra: 90
Kochia (Kochia scoparia); Rate 31 g/ha
  Plant response rating, Kochia: 85
Kochia (Kochia scoparia); Rate 62 g/ha
  Plant response rating, Kochia: 80
[3]; Rate 31 g/ha
  Plant response rating, Lambsquarters: 70
[3]; Rate 62 g/ha
  Plant response rating, Lambsquarters: 70
[4]; Rate 31 g/ha
  Plant response rating, Redroot pigweed: 70
[4]; Rate 62 g/ha
  Plant response rating, Redroot pigweed: 70
[5]; Rate 31 g/ha
  Plant response rating, Spring Barley: 70
[5]; Rate 62 g/ha
  Plant response rating, Spring Barley: 80
[6]; Rate 31 g/ha
  Plant response rating, Wheat (winter): 30
[6]; Rate 62 g/ha
  Plant response rating, Wheat (winter): 55

## Cc1cnc(-n2ccc(C(F)(F)F)n2)nc1Cn1ccc(C(F)(F)F)n1 [Compound 52]
[7]; Rate 16 g/ha
  Plant response rating, I. Ryegrass: 5
[7]; Rate 31 g/ha
  Plant response rating, I. Ryegrass: 10
[7]; Rate 62 g/ha
  Plant response rating, I. Ryegrass: 10
[7]; Rate 125 g/ha
  Plant response rating, I. Ryegrass: 10
[8]; Rate 16 g/ha
  Plant response rating, Annual bluegras: 10
[8]; Rate 31 g/ha
  Plant response rating, Annual bluegras: 20
[8]; Rate 62 g/ha
  Plant response rating, Annual bluegras: 20
[8]; Rate 125 g/ha
  Plant response rating, Annual bluegras: 50
[9]; Rate 16 g/ha
  Plant response rating, Green foxtail: 10
[9]; Rate 31 g/ha
  Plant response rating, Green foxtail: 10
[9]; Rate 62 g/ha
  Plant response rating, Green foxtail: 10
[9]; Rate 125 g/ha
  Plant response rating, Green foxtail: 30
[10]; Rate 16 g/ha
  Plant response rating, LS canarygrass: 10
[10]; Rate 31 g/ha
  Plant response rating, LS canarygrass: 10
[10]; Rate 62 g/ha
  Plant response rating, LS canarygrass: 10
[10]; Rate 125 g/ha
  Plant response rating, LS canarygrass: 20
[11]; Rate 16 g/ha
  Plant response rating, Scentless chamo: 30
[11]; Rate 31 g/ha
  Plant response rating, Scentless chamo: 50
[11]; Rate 62 g/ha
  Plant response rating, Scentless chamo: 60
[11]; Rate 125 g/ha
  Plant response rating, Scentless chamo: 70
[12]; Rate 16 g/ha
  Plant response rating, Spring Barley: 10
[12]; Rate 31 g/ha
  Plant response rating, Spring Barley: 10
[12]; Rate 62 g/ha
  Plant response rating, Spring Barley: 10
[12]; Rate 125 g/ha
  Plant response rating, Spring Barley: 10
[13]; Rate 16 g/ha
  Plant response rating, Windgrass: 10
[13]; Rate 31 g/ha
  Plant response rating, Windgrass: 10
[13]; Rate 62 g/ha
  Plant response rating, Windgrass: 20
[13]; Rate 125 g/ha
  Plant response rating, Windgrass: 50
[14]; Rate 16 g/ha
  Plant response rating, Lambsquarters: 70
[14]; Rate 31 g/ha
  Plant response rating, Lambsquarters: 80
[14]; Rate 62 g/ha
  Plant response rating, Lambsquarters: 80
[14]; Rate 125 g/ha
  Plant response rating, Lambsquarters: 80
[1]; Rate 31 g/ha
  Plant response rating, I. Ryegrass: 30
[1]; Rate 62 g/ha
  Plant response rating, I. Ryegrass: 70
[1]; Rate 125 g/ha
  Plant response rating, I. Ryegrass: 70
[2]; Rate 31 g/ha
  Plant response rating, Jointed goatgra: 30
[2]; Rate 62 g/ha
  Plant response rating, Jointed goatgra: 40
[2]; Rate 125 g/ha
  Plant response rating, Jointed goatgra: 40
Kochia (Kochia scoparia); Rate 31 g/ha
  Plant response rating, Kochia: 50
Kochia (Kochia scoparia); Rate 62 g/ha
  Plant response rating, Kochia: 80
Kochia (Kochia scoparia); Rate 125 g/ha
  Plant response rating, Kochia: 100
[3]; Rate 31 g/ha
  Plant response rating, Lambsquarters: 90
[3]; Rate 62 g/ha
  Plant response rating, Lambsquarters: 90
[3]; Rate 125 g/ha
  Plant response rating, Lambsquarters: 100
[4]; Rate 31 g/ha
  Plant response rating, Redroot pigweed: 90
[4]; Rate 62 g/ha
  Plant response rating, Redroot pigweed: 90
[4]; Rate 125 g/ha
  Plant response rating, Redroot pigweed: 100
[5]; Rate 31 g/ha
  Plant response rating, Spring Barley: 50
[5]; Rate 62 g/ha
  Plant response rating, Spring Barley: 60
[5]; Rate 125 g/ha
  Plant response rating, Spring Barley: 80
[6]; Rate 31 g/ha
  Plant response rating, Wheat (winter): 50
[6]; Rate 62 g/ha
  Plant response rating, Wheat (winter): 60
[6]; Rate 125 g/ha
  Plant response rating, Wheat (winter): 60

## Cc1cnc(-c2ccc(C(F)(F)F)cc2)nc1Cc1cccc(C(F)(F)F)c1 [Example 1, 5-methyl-2-[4-(trifluoromethyl)phenyl]-4-[[3-(trifluoromethyl)phenyl]methyl]pyrimidine]
[7]; Rate 16 g/ha
  Plant response rating, I. Ryegrass: 5
[7]; Rate 31 g/ha
  Plant response rating, I. Ryegrass: 10
[7]; Rate 62 g/ha
  Plant response rating, I. Ryegrass: 10
[7]; Rate 125 g/ha
  Plant response rating, I. Ryegrass: 10
[8]; Rate 16 g/ha
  Plant response rating, Annual bluegras: 20
[8]; Rate 31 g/ha
  Plant response rating, Annual bluegras: 50
[8]; Rate 62 g/ha
  Plant response rating, Annual bluegras: 50
[9]; Rate 16 g/ha
  Plant response rating, Green foxtail: 5
[9]; Rate 31 g/ha
  Plant response rating, Green foxtail: 10
[9]; Rate 62 g/ha
  Plant response rating, Green foxtail: 20
[9]; Rate 125 g/ha
  Plant response rating, Green foxtail: 20
[10]; Rate 16 g/ha
  Plant response rating, LS canarygrass: 10
[10]; Rate 31 g/ha
  Plant response rating, LS canarygrass: 10
[10]; Rate 62 g/ha
  Plant response rating, LS canarygrass: 20
[10]; Rate 125 g/ha
  Plant response rating, LS canarygrass: 20
[11]; Rate 16 g/ha
  Plant response rating, Scentless chamo: 30
[11]; Rate 31 g/ha
  Plant response rating, Scentless chamo: 60
[11]; Rate 62 g/ha
  Plant response rating, Scentless chamo: 60
[11]; Rate 125 g/ha
  Plant response rating, Scentless chamo: 60
[12]; Rate 16 g/ha
  Plant response rating, Spring Barley: 5
[12]; Rate 31 g/ha
  Plant response rating, Spring Barley: 10
[12]; Rate 62 g/ha
  Plant response rating, Spring Barley: 10
[12]; Rate 125 g/ha
  Plant response rating, Spring Barley: 10
[13]; Rate 16 g/ha
  Plant response rating, Windgrass: 5
[13]; Rate 31 g/ha
  Plant response rating, Windgrass: 20
[13]; Rate 125 g/ha
  Plant response rating, Windgrass: 30
[14]; Rate 16 g/ha
  Plant response rating, Lambsquarters: 0
[14]; Rate 31 g/ha
  Plant response rating, Lambsquarters: 60
[14]; Rate 62 g/ha
  Plant response rating, Lambsquarters: 60
[14]; Rate 125 g/ha
  Plant response rating, Lambsquarters: 50
[1]; Rate 31 g/ha
  Plant response rating, I. Ryegrass: 10
[1]; Rate 62 g/ha
  Plant response rating, I. Ryegrass: 40
[2]; Rate 31 g/ha
  Plant response rating, Jointed goatgra: 10
[2]; Rate 62 g/ha
  Plant response rating, Jointed goatgra: 20
[2]; Rate 125 g/ha
  Plant response rating, Jointed goatgra: 70
[2]; Rate 250 g/ha
  Plant response rating, Jointed goatgra: 50
Kochia (Kochia scoparia); Rate 31 g/ha
  Plant response rating, Kochia: 40
Kochia (Kochia scoparia); Rate 62 g/ha
  Plant response rating, Kochia: 100
Kochia (Kochia scoparia); Rate 125 g/ha
  Plant response rating, Kochia: 100
Kochia (Kochia scoparia); Rate 250 g/ha
  Plant response rating, Kochia: 85
[3]; Rate 31 g/ha
  Plant response rating, Lambsquarters: 10
[3]; Rate 62 g/ha
  Plant response rating, Lambsquarters: 70
[3]; Rate 125 g/ha
  Plant response rating, Lambsquarters: 70
[3]; Rate 250 g/ha
  Plant response rating, Lambsquarters: 70
[4]; Rate 31 g/ha
  Plant response rating, Redroot pigweed: 75
[4]; Rate 62 g/ha
  Plant response rating, Redroot pigweed: 70
[4]; Rate 125 g/ha
  Plant response rating, Redroot pigweed: 75
[4]; Rate 250 g/ha
  Plant response rating, Redroot pigweed: 70
[5]; Rate 31 g/ha
  Plant response rating, Spring Barley: 10
[5]; Rate 62 g/ha
  Plant response rating, Spring Barley: 20
[5]; Rate 125 g/ha
  Plant response rating, Spring Barley: 20
[5]; Rate 250 g/ha
  Plant response rating, Spring Barley: 40
[6]; Rate 31 g/ha
  Plant response rating, Wheat (winter): 10
[6]; Rate 62 g/ha
  Plant response rating, Wheat (winter): 10
[6]; Rate 125 g/ha
  Plant response rating, Wheat (winter): 20
[6]; Rate 250 g/ha
  Plant response rating, Wheat (winter): 40
